# Laboratory results taken from patent US20120276064A1, “METHODS AND COMPOSITIONS FOR REJUVENATION AND EXPANSION OF STEM CELLS” (priority 2011, published 2012).
# Tested on: myogenin protein expression in young MuSCs
# Test: Myogenin immunofluorescence analysis of hydrogel-cultured MuSCs
# Type: cell-based, mouse
# Details: soft hydrogel, 10 μM, one week, compared to control
# Method: Myogenin immunofluorescence analysis. MuSCs from young mice were isolated and cultured on 12 kPa hydrogels with either 0.1% DMSO control or 10 μM SB202190. After one week of culture, cells were fixed with 0.5% paraformaldehyde in PBS. Fixed cells were blocked with 20% goat serum and 0.5% Triton X100 in PBS. Cells were stained with anti-myogenin antibody (Santa Cruz Biotechnology, Santa Cruz, Calif.) and then an AlexaFluor594-conjugated secondary antibody (Invitrogen). Nuclei were stained with Topro3 (Invitrogen)the Immunofluorescence images were acquired using a LSM510 laser-scanning confocal microscope (Carl Zeiss Microimaging) with a Plan NeoFluar 20x/0.75NA objective. Digital images were captured using LSM510 software. Images were composed and edited in Photoshop software (Adobe). Background was reduced and contrast was enhanced equivalently across all images of the same stain. Nuclear regions were identified by Topro3 staining using MetaMorph software (Molecular Devices, Sunnyvale, Calif.). Within each nuclear region, the myogenin intensity was integrated using MetaMorph software. Nuclear myogenin intensities from each condition were plotted in a log-scale histogram to establish a threshold defining myogenin-positive cells.
compound,measurement,value
Oc1ccc(-c2nc(-c3ccncc3)c(-c3ccc(F)cc3)[nH]2)cc1 [SB202190],Percentage of myogenin+ cells,greatly diminished
